The text below walks through data of PubChem BioAssay (NCI).

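1) Cells in 96-well plates. 2) Compound, 48 h, 5 concentrations. 3) Linear interpolation between surrounding doses. 4) Unreached endpoint = highest concentration. GI50: concentration for 50% inhibition of growth. Definition used: TGI = concentration required for complete inhibition of growth.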

Some test systems named below: A549 NSCLC; MDA-MB-231 breast; NCI-H226 lung; SK-OV-3 ovarian; SNB-75 CNS; SR leukemia; SW-620 colon; UACC-257 melanoma; NCI-H460 lung; MCF7 breast.
Common to all, as to assay: inhibition of tumour cell growth, NCI panel, 48 h

For `COc1cccc2c(Nc3ccc(C(=O)NCCN(C)C)cc3)cc(-c3ccccc3)nc12`, the GI50 in the experiment with A549 NSCLC is 16 µM; with MDA-MB-231 breast, 4.15 µM; with NCI-H226 lung it was 19.3 µM; with SK-OV-3 ovarian, 29.4 µM; in the experiment on SNB-75 CNS, 29.5 µM; in the experiment on SR leukemia, 1.86 µM. The GI50 in the experiment with SW-620 colon is 14 µM; in the experiment on UACC-257 melanoma, 15.7 µM. The TGI in the experiment with A549 NSCLC is 33.1 µM; with MDA-MB-231 breast it was 19.4 µM; in the experiment on NCI-H226 lung it was 40 µM; with SK-OV-3 ovarian, 71.2 µM; with SNB-75 CNS, 66 µM; with SR leukemia, 7.52 µM. The TGI in the experiment with SW-620 colon came to 33.4 µM; with UACC-257 melanoma, 29.9 µM.

For `O=C1CCC(=O)C12CCc1cccc(O)c12`, the TGI in the experiment on A549 NSCLC, in the experiment on NCI-H460 lung, in the experiment on SK-OV-3 ovarian, with SNB-75 CNS and in the experiment on SW-620 colon was above 100 µM in each case.

Regarding `CC1=N/C(=C\c2ccc([N+](=O)[O-])cc2)C(=O)O1`, the TGI in the experiment on A549 NSCLC, in the experiment on NCI-H460 lung, with SW-620 colon and in the experiment on UACC-257 melanoma was above 100 µM in each case.

For `COc1ccc(/C=C/C(C(=O)O)C(=O)O)cc1`, the TGI with A549 NSCLC, in the experiment with NCI-H226 lung, with NCI-H460 lung, in the experiment on SK-OV-3 ovarian, with SR leukemia and in the experiment with SW-620 colon was above 100 µM each time. The compound further came in with a TGI in the experiment with UACC-257 melanoma above 100 µM.

As for `COc1ccc(Nc2c[nH]c(=O)[nH]c2=O)cc1`, the TGI in the experiment with A549 NSCLC, in the experiment with MCF7 breast, in the experiment with MDA-MB-231 breast, in the experiment with NCI-H226 lung, with SK-OV-3 ovarian and in the experiment on SNB-75 CNS was above 100 µM in each case. Moreover, the TGI in the experiment on SW-620 colon and in the experiment on UACC-257 melanoma was above 100 µM in each case.

As for `CC(C)(C)C(=O)OCC(COC(=O)C(C)(C)C)[N+](=O)[O-]`, the TGI in the experiment on A549 NSCLC, in the experiment on NCI-H226 lung, in the experiment on NCI-H460 lung, in the experiment with SK-OV-3 ovarian, in the experiment on SNB-75 CNS and with SR leukemia was above 100 µM in each case. In addition, the TGI with SW-620 colon and in the experiment with UACC-257 melanoma was above 100 µM in each case.

In the case of `O=c1c2cccnc2ncn1CCCN1CCOCC1`, the TGI in the experiment with A549 NSCLC, in the experiment on NCI-H226 lung, in the experiment with NCI-H460 lung, in the experiment with SK-OV-3 ovarian, with SNB-75 CNS and with SR leukemia was above 100 µM throughout. The compound further showed a TGI in the experiment on SW-620 colon above 100 µM.

For `CCCCC#Cc1cccc(=O)o1`, the GI50 in the experiment on A549 NSCLC was 45.6 µM; with MCF7 breast, 8.9 µM; in the experiment on MDA-MB-231 breast, 6.43 µM; in the experiment with NCI-H226 lung it was above 100 µM; in the experiment on NCI-H460 lung, 36.2 µM; in the experiment on SK-OV-3 ovarian it was above 100 µM. Moreover, the results for the GI50 with SW-620 colon and in the experiment on UACC-257 melanoma were 22.5 µM and 30.9 µM, respectively. Further, the TGI in the experiment with A549 NSCLC, with MCF7 breast, in the experiment with MDA-MB-231 breast, with NCI-H226 lung, in the experiment with NCI-H460 lung and in the experiment on SK-OV-3 ovarian was above 100 µM in each case. Besides, the TGI in the experiment on SW-620 colon and in the experiment on UACC-257 melanoma was above 100 µM each time.

Turning to `CCOC(=O)C1(C(=O)OCC)CC=C(C)CC12C(=O)Nc1ccccc12` (stereo not given), the TGI in the experiment on A549 NSCLC, in the experiment with NCI-H226 lung, in the experiment on NCI-H460 lung, in the experiment on SK-OV-3 ovarian, in the experiment on SNB-75 CNS and in the experiment with SW-620 colon was above 100 µM throughout.

Consider `CN(C)CCNC(=O)c1cccc2c1nc(-c1ccccn1)c1ccccc12`, for which the TGI in the experiment with A549 NSCLC was found to be 27.9 µM; in the experiment with NCI-H460 lung, 23.2 µM; with SK-OV-3 ovarian, 37.3 µM; in the experiment on SNB-75 CNS, 47.1 µM; in the experiment on SW-620 colon it was 27.3 µM; with UACC-257 melanoma, 30.4 µM.

Take `N#Cc1nc(Nc2ccc([N+](=O)[O-])cc2)sc1N`: the TGI was above 100 µM in the experiment with A549 NSCLC; above 86.3 µM in the experiment with NCI-H226 lung; above 100 µM in the experiment with NCI-H460 lung; 97.5 µM in the experiment with SK-OV-3 ovarian; above 100 µM in the experiment with SNB-75 CNS; 6.85 µM in the experiment with SR leukemia. In addition, the TGI in the experiment with SW-620 colon was above 100 µM; in the experiment on UACC-257 melanoma it was 63.7 µM.

Take `Cc1ccc([Se][Se]c2ccc(C)cc2)cc1`: the TGI in the experiment with A549 NSCLC is above 100 µM; in the experiment with NCI-H226 lung, above 100 µM; with NCI-H460 lung, above 100 µM; in the experiment with SK-OV-3 ovarian it was above 100 µM; with SNB-75 CNS, 42.2 µM; in the experiment with SW-620 colon, 51.6 µM. The compound also came in with a TGI in the experiment with UACC-257 melanoma of 68.8 µM.

On to `COC(=O)C(=O)C(C#N)c1ccc(Cl)c(Cl)c1` (stereo not given), for which the TGI in the experiment with A549 NSCLC, with NCI-H226 lung, with SK-OV-3 ovarian, in the experiment with SNB-75 CNS, in the experiment with SR leukemia and with SW-620 colon was above 100 µM throughout. This compound also returned a TGI in the experiment with UACC-257 melanoma above 100 µM.

On to `COP1(=S)OCC2CCC[C@@H]2O1` (stereo not given in full), for which the TGI in the experiment on A549 NSCLC, in the experiment with MDA-MB-231 breast, in the experiment with NCI-H226 lung, with NCI-H460 lung, in the experiment on SNB-75 CNS and in the experiment on SR leukemia was above 100 µM throughout. Besides, the TGI in the experiment with SW-620 colon and in the experiment on UACC-257 melanoma was above 100 µM throughout.

With `CC1=C(c2cc(C(=O)Nc3cccc(C(F)(F)F)c3)nc(NC#N)n2)Sc2ccccc2N1`, the TGI in the experiment on A549 NSCLC, in the experiment on NCI-H226 lung, with NCI-H460 lung, in the experiment with SK-OV-3 ovarian, with SNB-75 CNS and with SR leukemia was above 100 µM in each case. Moreover, the TGI in the experiment on SW-620 colon and in the experiment on UACC-257 melanoma was above 100 µM each time.

As for `CCCCCCCCCC(=O)N[C@H]1CCc2cc(OC)c(OC)c(OC)c2-c2ccc(SC)c(=O)cc21`, the TGI with A549 NSCLC was above 100 µM; in the experiment with NCI-H460 lung it was 0.306 µM; in the experiment on SK-OV-3 ovarian, 0.0678 µM; in the experiment with SW-620 colon, above 100 µM; in the experiment with UACC-257 melanoma it was 13.9 µM. Besides, in the experiment on NCI-H226 lung, the GI50 is 0.619 µM.

With `O=C(O/N=C1/CCCC/C1=C\c1ccccc1)c1ccc(Cl)cc1`, the TGI in the experiment on A549 NSCLC, in the experiment on NCI-H226 lung, in the experiment on NCI-H460 lung, in the experiment with SK-OV-3 ovarian, with SNB-75 CNS and in the experiment on SR leukemia was above 100 µM each time. Besides, the TGI in the experiment with SW-620 colon and in the experiment with UACC-257 melanoma was above 100 µM throughout.
